Organism: Rattus norvegicus
Test: Open TG-GATES - Regimen: Daily Repeat
Format: toxicity, organism-based, Sprague-Dawley
Parameters: regimen Daily Repeat, gender Male, age 6 weeks
Conditions: in vivo, po, 15 mg/kg, route gavage, dose level Low; for APTT / Bas / Eos / Fbg / Hb / Ht / Lym / MCH / MCHC / MCV / Mono / Neu / PT / Plat / RBC / Ret / WBC: tissue Blood; for KIDNEY_L / KIDNEY_R / KIDNEY_TOTAL: tissue Kidney; for LIVER: tissue Liver; for A/G / ALP / ALT / AST / BUN / CRE / Ca / Cl / DBIL / GLC / IP / K / LDH / Na / PL / RALB / TBIL / TC / TG / TP / gamma-GTP: tissue Plasma

CN(C)CCC=C1c2ccccc2CCc2ccccc21 [AMITRIPTYLINE] showed a TERMINAL_BW (72 h, time 3 day) of 224.1 g, an APTT (72 h, time 3 day) of 16 s and a Bas (72 h, time 3 day) of 0%. For the same molecule, the Eos (72 h, time 3 day) was 1%, the Fbg (72 h, time 3 day) was 268.6 mg/dL and the Hb (72 h, time 3 day) was 13.1 g/dL. It also gave a Ht (72 h, time 3 day) of 40%, a Lym (72 h, time 3 day) of 76.8% and an MCH (72 h, time 3 day) of 20.3 pg. For the same molecule, the MCHC (72 h, time 3 day) was 32.7%, the MCV (72 h, time 3 day) was 62 fL and the Mono (72 h, time 3 day) was 3%. It also gave a Neu (72 h, time 3 day) of 18.2%, a PT (72 h, time 3 day) of 16 s and a Plat (72 h, time 3 day) of 118.8 x10_4/uL. It also gave an RBC (72 h, time 3 day) of 645.4 x10_4/ul, a Ret (72 h, time 3 day) of 7.3% and a WBC (72 h, time 3 day) of 97.8 x10_2/uL. It also gave a KIDNEY_L (72 h, time 3 day) of 0.9 g, a KIDNEY_R (72 h, time 3 day) of 0.9 g and a KIDNEY_TOTAL (72 h, time 3 day) of 1.8 g. For the same molecule, the LIVER (72 h, time 3 day) was 10.4 g, the A/G (72 h, time 3 day) was 0.8 and the ALP (72 h, time 3 day) was 1844.8 IU/L. It also gave an ALT (72 h, time 3 day) of 55.8 IU/L, an AST (72 h, time 3 day) of 74.6 IU/L and a BUN (72 h, time 3 day) of 14.2 mg/dL. It also gave a CRE (72 h, time 3 day) of 0.2 mg/dL, a Ca (72 h, time 3 day) of 11 mg/dL and a Cl (72 h, time 3 day) of 105.6 meq/L. The DBIL (72 h, time 3 day) was 0.022 mg/dL, the GLC (72 h, time 3 day) was 185.2 mg/dL and the IP (72 h, time 3 day) was 7.7 mg/dL. For the same molecule, the K (72 h, time 3 day) was 4 meq/L, the LDH (72 h, time 3 day) was 74.6 IU/L and the Na (72 h, time 3 day) was 143.6 meq/L. It also gave a PL (72 h, time 3 day) of 150.2 mg/dL, an RALB (72 h, time 3 day) of 2.7 g/dL and a TBIL (72 h, time 3 day) of 0.06 mg/dL. For the same molecule, the TC (72 h, time 3 day) was 76.2 mg/dL, the TG (72 h, time 3 day) was 106 mg/dL and the TP (72 h, time 3 day) was 5.8 g/dL. The gamma-GTP (72 h, time 3 day) was 0.8 IU/L, the TERMINAL_BW ([…], time 7 day) was 265.9 g and the TERMINAL_BW ([…], time 14 day) was 314.4 g. The TERMINAL_BW ([…], time 28 day) was 400.5 g, the APTT ([…], time 7 day) was 15.5 s and the Bas ([…], time 7 day) was 0%. The Eos ([…], time 7 day) was 1.2%, the Fbg ([…], time 7 day) was 292 mg/dL and the Hb ([…], time 7 day) was 13.6 g/dL. It also gave a Ht ([…], time 7 day) of 41.4%, a Lym ([…], time 7 day) of 79.6% and an MCH ([…], time 7 day) of 20.6 pg. The MCHC ([…], time 7 day) was 32.7%, the MCV ([…], time 7 day) was 62.8 fL and the Mono ([…], time 7 day) was 3%. For the same molecule, the Neu ([…], time 7 day) was 15.6%, the PT ([…], time 7 day) was 15.1 s and the Plat ([…], time 7 day) was 116.5 x10_4/uL. For the same molecule, the RBC ([…], time 7 day) was 659 x10_4/ul, the Ret ([…], time 7 day) was 6.3% and the WBC ([…], time 7 day) was 93.6 x10_2/uL. It also gave an APTT ([…], time 14 day) of 17.3 s, a Bas ([…], time 14 day) of 0.4% and an Eos ([…], time 14 day) of 1%. It also gave a Fbg ([…], time 14 day) of 289.6 mg/dL, a Hb ([…], time 14 day) of 14 g/dL and a Ht ([…], time 14 day) of 42.2%. The Lym ([…], time 14 day) was 76%, the MCH ([…], time 14 day) was 20 pg and the MCHC ([…], time 14 day) was 33.2%. For the same molecule, the MCV ([…], time 14 day) was 60.3 fL, the Mono ([…], time 14 day) was 2.2% and the Neu ([…], time 14 day) was 20%. For the same molecule, the PT ([…], time 14 day) was 16 s, the Plat ([…], time 14 day) was 118.1 x10_4/uL and the RBC ([…], time 14 day) was 698.6 x10_4/ul. It also gave a Ret ([…], time 14 day) of 4.4%, a WBC ([…], time 14 day) of 115.2 x10_2/uL and an APTT ([…], time 28 day) of 21.5 s. The Bas ([…], time 28 day) was 0.2%, the Eos ([…], time 28 day) was 1.4% and the Fbg ([…], time 28 day) was 286.6 mg/dL. It also gave a Hb ([…], time 28 day) of 15.5 g/dL, a Ht ([…], time 28 day) of 45.4% and a Lym ([…], time 28 day) of 81.4%. The MCH ([…], time 28 day) was 19.3 pg, the MCHC ([…], time 28 day) was 34.1% and the MCV ([…], time 28 day) was 56.6 fL. The Mono ([…], time 28 day) was 2%, the Neu ([…], time 28 day) was 14.2% and the PT ([…], time 28 day) was 16.1 s. For the same molecule, the Plat ([…], time 28 day) was 97.5 x10_4/uL, the RBC ([…], time 28 day) was 802.8 x10_4/ul and the Ret ([…], time 28 day) was 2.5%. It also gave a WBC ([…], time 28 day) of 104.9 x10_2/uL, a KIDNEY_L ([…], time 7 day) of 1.1 g and a KIDNEY_R ([…], time 7 day) of 1.1 g. It also gave a KIDNEY_TOTAL ([…], time 7 day) of 2.1 g, a KIDNEY_L ([…], time 14 day) of 1.2 g and a KIDNEY_R ([…], time 14 day) of 1.2 g. It also gave a KIDNEY_TOTAL ([…], time 14 day) of 2.4 g, a KIDNEY_L ([…], time 28 day) of 1.4 g and a KIDNEY_R ([…], time 28 day) of 1.4 g. For the same molecule, the KIDNEY_TOTAL ([…], time 28 day) was 2.8 g, the LIVER ([…], time 7 day) was 12.7 g and the LIVER ([…], time 14 day) was 13.8 g. For the same molecule, the LIVER ([…], time 28 day) was 16.1 g, the A/G ([…], time 7 day) was 0.8 and the ALP ([…], time 7 day) was 1784.2 IU/L. It also gave an ALT ([…], time 7 day) of 44.8 IU/L, an AST ([…], time 7 day) of 70.6 IU/L and a BUN ([…], time 7 day) of 18.4 mg/dL. It also gave a CRE ([…], time 7 day) of 0.2 mg/dL, a Ca ([…], time 7 day) of 10.9 mg/dL and a Cl ([…], time 7 day) of 105.6 meq/L. For the same molecule, the DBIL ([…], time 7 day) was 0.018 mg/dL, the GLC ([…], time 7 day) was 187.6 mg/dL and the IP ([…], time 7 day) was 7.7 mg/dL. It also gave a K ([…], time 7 day) of 4.1 meq/L, an LDH ([…], time 7 day) of 85.8 IU/L and a Na ([…], time 7 day) of 143.8 meq/L. The PL ([…], time 7 day) was 163.8 mg/dL, the RALB ([…], time 7 day) was 2.7 g/dL and the TBIL ([…], time 7 day) was 0.046 mg/dL. The TC ([…], time 7 day) was 78 mg/dL, the TG ([…], time 7 day) was 126 mg/dL and the TP ([…], time 7 day) was 5.9 g/dL. For the same molecule, the gamma-GTP ([…], time 7 day) was 0.8 IU/L, the A/G ([…], time 14 day) was 0.8 and the ALP ([…], time 14 day) was 1397.6 IU/L. For the same molecule, the ALT ([…], time 14 day) was 44 IU/L, the AST ([…], time 14 day) was 69 IU/L and the BUN ([…], time 14 day) was 16.8 mg/dL. The CRE ([…], time 14 day) was 0.2 mg/dL, the Ca ([…], time 14 day) was 10.9 mg/dL and the Cl ([…], time 14 day) was 105.8 meq/L. It also gave a DBIL ([…], time 14 day) of 0.018 mg/dL, a GLC ([…], time 14 day) of 196 mg/dL and an IP ([…], time 14 day) of 6.8 mg/dL. For the same molecule, the K ([…], time 14 day) was 4 meq/L, the LDH ([…], time 14 day) was 65 IU/L and the Na ([…], time 14 day) was 142.8 meq/L. For the same molecule, the PL ([…], time 14 day) was 154 mg/dL, the RALB ([…], time 14 day) was 2.7 g/dL and the TBIL ([…], time 14 day) was 0.05 mg/dL. For the same molecule, the TC ([…], time 14 day) was 70 mg/dL, the TG ([…], time 14 day) was 156.2 mg/dL and the TP ([…], time 14 day) was 6.1 g/dL. For the same molecule, the gamma-GTP ([…], time 14 day) was 0.4 IU/L, the A/G ([…], time 28 day) was 0.8 and the ALP ([…], time 28 day) was 1354.6 IU/L. For the same molecule, the ALT ([…], time 28 day) was 36 IU/L, the AST ([…], time 28 day) was 61.2 IU/L and the BUN ([…], time 28 day) was 17.6 mg/dL. The CRE ([…], time 28 day) was 0.2 mg/dL, the Ca ([…], time 28 day) was 10.6 mg/dL and the Cl ([…], time 28 day) was 103.8 meq/L. For the same molecule, the DBIL ([…], time 28 day) was 0.018 mg/dL, the GLC ([…], time 28 day) was 180.6 mg/dL and the IP ([…], time 28 day) was 6.2 mg/dL. It also gave a K ([…], time 28 day) of 3.8 meq/L, an LDH ([…], time 28 day) of 55.4 IU/L and a Na ([…], time 28 day) of 142.8 meq/L. For the same molecule, the PL ([…], time 28 day) was 156.2 mg/dL, the RALB ([…], time 28 day) was 2.8 g/dL and the TBIL ([…], time 28 day) was 0.056 mg/dL. The TC ([…], time 28 day) was 77 mg/dL, the TG ([…], time 28 day) was 130.4 mg/dL and the TP ([…], time 28 day) was 6.3 g/dL. The gamma-GTP ([…], time 28 day) was 0 IU/L.
